Patent US20100300896A1, “Redox Molecules And Methods Of Making The Same” (BAYER HEALTHCARE LLC, priority 2009, published 2010)
Where two headings read alike, the source gives them in different places.

Experiments:
[1] = conventional mediator, buffer not stated; cited from earlier work
[2] = Open circuit voltage between working electrode and reference electrode; assay type: physicochemical; details: 10 mM PBS buffer
Protocol: The open circuit voltage between the WE and the RE also was measured for the mediator composition of FIGS. 1A and 1B. The open circuit voltage is a measure of the redox state of the mediator.
The open circuit voltage between the WE and the RE also was measured for the compound having general formula (III), where X is bromine.

[3] = test system: glucose dehydrogenase; experiment: Output current from mediator in a mixture containing glucose and glucose dehydrogenase; assay type: biochemical; details: mediator 3 mg/mL, 10 mM PBS buffer (pH 7.4), input potential 100 mV vs. Ag/AgCl, glucose 0 to 1.2 mM
Protocol: FIG. 2 depicts a graph illustrating output currents from mediator oxidation in response to an input potential when the mediator is in a mixture containing glucose and glucose dehydrogenase. The mediator was the composition used in FIGS. 1A and 1B. A 5 mm glassy carbon electrode served as a WE, Ag/AgCl as a RE, and platinum gauAge as a CE. The composition was present at a concentration of 2 mg/mL in a mixture containing 10 mM PBS buffer (pH 7.4), and the input potential was 100 mV vs. Ag/AgCl. […] Thus, the composition may be used as a mediator for the redox reaction correlating the glucose concentration in a sample with an electrical signal. Referring to FIG. 2, a compound having general formula (III), where X is bromine, can be used as a mediator for the redox reaction correlating the glucose concentration of a sample with an electrical signal. A 5 mm glassy carbon electrode served as a WE, Ag/AgCl as a RE, and platinum gauAge as a CE. The mediator was present at a concentration of 3 mg/mL in a mixture containing 10 mM PBS buffer (pH 7.4), and the input potential was 100 mV vs. Ag/AgCl. […] Thus, the composition may be used as a mediator for the redox reaction correlating the glucose concentration in a sample with an electrical signal.

[4] = Voltammetric scan of the mediator: output current in response to input potential (glassy carbon WE, Ag/AgCl RE, platinum CE); assay type: physicochemical; details: for redox potential: mediator 1 mg/mL
From the text: FIGS. 1A and 1B depict graphs illustrating output currents from mediator reduction in response to an input potential. The mediator was a composition including a 3:2 molar mixture of a first compound having the general formula (I), and a second compound having the general formula (II), where X is bromine and each compound is present as the disodium salt. A 5 mm glassy carbon electrode served as a working electrode (WE), Ag/AgCl as a reference electrode (RE), and platinum gauAge as a counter electrode (CE). In FIG. 1A, the mediator composition was present at a concentration of 1 mg/mL in a mixture containing 10 mM PBS buffer (pH 7.4), and the input potential was scanned between −200 mV and 200 mV vs. Ag/AgCl. In FIG. 1B, the mediator composition was present at a concentration of 1 mg/mL in a mixture containing 100 mM PBS (pH 7.0) and 100 mM NaCl buffer solution, and the input potential was scanned between −100 mV and 200 mV vs. Ag/AgCl. Referring to FIG. 1B, when the scan rate was less than 50 mV/s, the oxidative and reductive peak separation was around 30-40 mV. […] The redox potential of the mediator composition of FIGS. 1A and 1B was about −3 mV vs. Ag/AgCl in the 10 mM PBS buffer (pH 7.4), and was about 40 mV vs. Ag/AgCl in the mixture of 100 mM PBS (pH 7.0) and 100 mM NaCl buffer. These redox potentials are similar to that of the conventional mediator (E)-2-(3H-phenothiaAgine-3-ylideneamino)benAgene-1,4-disulfonic acid (Structure A), which is −50 mV vs. Ag/AgCl. FIG. 5A and FIG. 5B depict graphs illustrating output currents from mediator reduction in response to an input potential. The mediator was a compound having general formula (III), where X is bromine. A 5 mm glassy carbon electrode served as a WE, Ag/AgCl as a RE, and platinum gauAge as a CE. In FIG. 5A, the mediator was present at a concentration of 1 mg/mL in a mixture containing 10 mM PBS buffer (pH 7.4), and the input potential was scanned between −200 mV and 200 mV vs. Ag/AgCl. […]

open circuit voltage [2] [mV vs. Ag/AgCl]	redox potential ([4]; 10 mM PBS buffer (pH 7.4))	redox potential ([4]; mixture of 100 mM PBS (pH 7.0) and 100 mM NaCl buffer)	oxidative and reductive peak separation ([4]; scan rate less than 50 mV/s, 100 mM PBS (pH 7.0) and 100 mM NaCl buffer, 1 mg/mL)	SMILES	redox potential [1] [mV vs. Ag/AgCl]	output current vs glucose concentration [3]
–	–	–	–	O=S(=O)(O)c1ccc(S(=O)(=O)O)c(/N=c2\ccc3nc4ccccc4sc-3c2)c1 [Structure A, (E)-2-(3H-phenothiaAgine-3-ylideneamino)benAgene-1,4-disulfonic acid]	−50	–
111	about 3 mV vs. Ag/AgCl	about 15 mV vs. Ag/AgCl	30-40 mV	O=S(=O)(O)c1ccc(S(=O)(=O)O)c(N=c2cc3sc4ccccc4nc-3cc2OCCCCCCCCBr)c1 [2-(2-(8-bromooctanoxy)-3H-phenothiaAgin-3-ylideneamino)benAgene-1,4-disulfonic acid]	–	output current increased as the glucose concentration increased from 0 to 1.2 mM
